Measurements published in US11834453B2, “Substituted pyrimido[5,4-d]pyrimidines as HER2 inhibitors” (Array BioPharma Inc., priority 2020, dated 2023).
pIC50: −log10 of the molar value. Like-named read-outs stand apart in the source and are kept apart here.

How the values were obtained:
[1] = target: ErbB2 insYVMA (HER2-YVMA, SEQ ID NO: 2) (Homo sapiens, UniProt P04626, INS775YVMA/P1170A); test: biochemical; details: ErbB2 insYVMA enzyme assay; for pIC50: read-out: Assay 1 IC50; for IC50: Assay 1 IC50 (nM)
[2] = target: ErbB2 WT (Homo sapiens (Human), UniProt P04626); test: ErbB enzyme assay (CisBio HTRF KinEASE-TK), Assay 2; format: biochemical
In short: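 Readout is HTRF KinEASE-TK, using Sa-XL665 and cryptate antibody for 1 h at 22 °C, as percent of control between DMSO-only (100) and pre-quenched (0) reactions. The kinase reaction runs 30 min at 22 °C with 1 mM ATP and 250 nM biotinylated TK substrate, in HEPES pH 7.4 with MgCl2 and 2% DMSO.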

[3] = target: EGFR (Homo sapiens (Human), UniProt P00533); test: ErbB enzyme assay (CisBio HTRF KinEASE-TK), Assay 3; format: biochemical
In short: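 Using a time-resolved FRET read-out, tyrosine phosphorylation of 250 nM biotin substrate at 1 mM ATP (pH 7.4, 10 mM MgCl2, 2% DMSO, 22 °C, 30 min) was quantified against DMSO and pre-quenched controls; IC50 taken at 50% of control.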

[4] = target: ErbB2 with Exon 20 YVMA insertion (HER2-YVMA) (Homo sapiens (Human), UniProt P04626, INS775YVMA); test: Cellular phosphorylation assay, constitutive ErbB2 phosphorylation (Y1196) in engineered NIH 3T3 cells, Assay 4; format: cell-based
In short: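 In-cell Western in NIH 3T3 cells carrying ErbB2 exon 20 YVMA insertion, with no ligand stimulation. One hour compound exposure at 37 °C before fixation and anti-pY1196 plus GAPDH staining with dual-wavelength fluorescence. IC50 derived after GAPDH normalization.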

[5] = target: EGFR wild type (EGFR WT) (Homo sapiens (Human), UniProt P00533); test: Cellular phosphorylation assay, EGF-stimulated EGFR phosphorylation in engineered NIH 3T3 cells, Phospho-EGFR DuoSet IC ELISA, Assay 5; format: cell-based
In short: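 Phospho-EGFR ELISA on lysates of engineered NIH 3T3 EGFR WT cells, IC50 derived from concentration curves. Cells plated at 20,000/well overnight, given compound dilutions 1 h at 37 °C, then rEGF 100 ng/ml for a further 10 min before lysis.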

[6] = target: MDR1 (P-gp) (Homo sapiens (Human), UniProt P08183); test: MDR1 transfected MDCKII canine Mdr1 knockout permeability/efflux, Assay 7; details: dog, MDCK-MDR1

ErbB2 insYVMA (HER2-YVMA, SEQ ID NO: 2), sequence (P04626 with tags, fused parts or gaps INS775YVMA/P1170A limits assumed): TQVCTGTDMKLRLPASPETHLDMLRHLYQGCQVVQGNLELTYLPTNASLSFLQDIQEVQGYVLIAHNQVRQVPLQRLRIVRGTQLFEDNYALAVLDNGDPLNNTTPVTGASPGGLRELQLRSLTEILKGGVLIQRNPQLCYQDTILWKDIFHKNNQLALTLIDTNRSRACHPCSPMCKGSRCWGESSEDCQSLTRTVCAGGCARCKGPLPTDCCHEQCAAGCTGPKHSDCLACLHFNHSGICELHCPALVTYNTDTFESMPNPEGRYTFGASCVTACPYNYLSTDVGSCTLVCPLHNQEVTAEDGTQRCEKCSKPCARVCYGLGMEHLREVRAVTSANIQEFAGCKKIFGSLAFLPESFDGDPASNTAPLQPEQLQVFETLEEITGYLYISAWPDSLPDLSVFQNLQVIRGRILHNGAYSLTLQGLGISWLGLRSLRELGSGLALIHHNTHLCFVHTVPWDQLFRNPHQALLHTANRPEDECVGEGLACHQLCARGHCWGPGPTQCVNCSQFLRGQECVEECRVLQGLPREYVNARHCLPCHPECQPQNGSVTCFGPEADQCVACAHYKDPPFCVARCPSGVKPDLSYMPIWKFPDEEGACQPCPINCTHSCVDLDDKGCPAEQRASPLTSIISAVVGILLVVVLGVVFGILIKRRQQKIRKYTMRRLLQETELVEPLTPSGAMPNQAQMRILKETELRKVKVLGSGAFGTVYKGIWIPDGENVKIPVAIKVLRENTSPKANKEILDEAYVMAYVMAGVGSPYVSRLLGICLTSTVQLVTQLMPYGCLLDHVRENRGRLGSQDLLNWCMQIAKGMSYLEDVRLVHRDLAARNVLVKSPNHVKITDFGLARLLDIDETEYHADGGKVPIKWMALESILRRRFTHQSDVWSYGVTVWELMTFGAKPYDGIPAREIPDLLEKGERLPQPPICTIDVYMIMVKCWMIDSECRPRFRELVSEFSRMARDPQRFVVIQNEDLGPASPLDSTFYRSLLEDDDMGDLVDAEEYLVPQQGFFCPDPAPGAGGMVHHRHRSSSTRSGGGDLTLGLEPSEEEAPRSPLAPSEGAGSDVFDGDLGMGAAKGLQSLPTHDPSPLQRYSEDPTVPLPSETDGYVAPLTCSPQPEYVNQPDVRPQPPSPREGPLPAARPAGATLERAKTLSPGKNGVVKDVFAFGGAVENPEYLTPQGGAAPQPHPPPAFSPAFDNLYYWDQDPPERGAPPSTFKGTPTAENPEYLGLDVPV
ErbB2 with Exon 20 YVMA insertion (HER2-YVMA), sequence (P04626 other isoform, or with tags, fused parts or gaps ins YVMA behind 775): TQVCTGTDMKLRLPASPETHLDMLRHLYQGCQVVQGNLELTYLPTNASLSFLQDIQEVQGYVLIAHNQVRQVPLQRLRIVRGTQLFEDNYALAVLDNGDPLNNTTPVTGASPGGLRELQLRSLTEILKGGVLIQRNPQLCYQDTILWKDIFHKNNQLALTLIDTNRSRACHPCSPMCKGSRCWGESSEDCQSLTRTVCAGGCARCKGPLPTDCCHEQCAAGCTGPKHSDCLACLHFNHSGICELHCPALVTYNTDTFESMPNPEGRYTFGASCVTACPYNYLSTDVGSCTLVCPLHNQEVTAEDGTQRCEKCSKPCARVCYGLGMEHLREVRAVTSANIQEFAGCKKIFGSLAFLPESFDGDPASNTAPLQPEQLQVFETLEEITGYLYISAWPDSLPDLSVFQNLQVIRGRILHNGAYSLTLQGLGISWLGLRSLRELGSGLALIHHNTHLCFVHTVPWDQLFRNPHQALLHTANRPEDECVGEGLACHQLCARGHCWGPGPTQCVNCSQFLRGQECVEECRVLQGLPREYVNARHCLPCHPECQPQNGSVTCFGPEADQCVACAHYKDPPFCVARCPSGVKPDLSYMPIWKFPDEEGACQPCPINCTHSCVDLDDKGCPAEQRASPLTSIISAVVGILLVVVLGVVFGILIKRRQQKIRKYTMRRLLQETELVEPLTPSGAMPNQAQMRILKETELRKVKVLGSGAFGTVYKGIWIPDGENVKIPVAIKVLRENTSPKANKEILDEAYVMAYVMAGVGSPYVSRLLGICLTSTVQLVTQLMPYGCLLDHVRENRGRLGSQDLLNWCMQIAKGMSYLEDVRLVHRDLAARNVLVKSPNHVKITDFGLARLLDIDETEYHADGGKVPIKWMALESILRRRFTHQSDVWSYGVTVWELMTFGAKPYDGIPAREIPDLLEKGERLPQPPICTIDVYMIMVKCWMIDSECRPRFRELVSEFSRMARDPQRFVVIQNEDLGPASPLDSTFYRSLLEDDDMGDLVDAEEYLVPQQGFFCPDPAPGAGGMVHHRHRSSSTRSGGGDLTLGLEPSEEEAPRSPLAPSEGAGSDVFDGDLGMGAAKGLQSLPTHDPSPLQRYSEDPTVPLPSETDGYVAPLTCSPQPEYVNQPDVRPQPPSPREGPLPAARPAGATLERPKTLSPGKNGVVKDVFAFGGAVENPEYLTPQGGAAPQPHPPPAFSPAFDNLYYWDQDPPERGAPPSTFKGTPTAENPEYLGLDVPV
ErbB2 WT, sequence (P04626 23-1255): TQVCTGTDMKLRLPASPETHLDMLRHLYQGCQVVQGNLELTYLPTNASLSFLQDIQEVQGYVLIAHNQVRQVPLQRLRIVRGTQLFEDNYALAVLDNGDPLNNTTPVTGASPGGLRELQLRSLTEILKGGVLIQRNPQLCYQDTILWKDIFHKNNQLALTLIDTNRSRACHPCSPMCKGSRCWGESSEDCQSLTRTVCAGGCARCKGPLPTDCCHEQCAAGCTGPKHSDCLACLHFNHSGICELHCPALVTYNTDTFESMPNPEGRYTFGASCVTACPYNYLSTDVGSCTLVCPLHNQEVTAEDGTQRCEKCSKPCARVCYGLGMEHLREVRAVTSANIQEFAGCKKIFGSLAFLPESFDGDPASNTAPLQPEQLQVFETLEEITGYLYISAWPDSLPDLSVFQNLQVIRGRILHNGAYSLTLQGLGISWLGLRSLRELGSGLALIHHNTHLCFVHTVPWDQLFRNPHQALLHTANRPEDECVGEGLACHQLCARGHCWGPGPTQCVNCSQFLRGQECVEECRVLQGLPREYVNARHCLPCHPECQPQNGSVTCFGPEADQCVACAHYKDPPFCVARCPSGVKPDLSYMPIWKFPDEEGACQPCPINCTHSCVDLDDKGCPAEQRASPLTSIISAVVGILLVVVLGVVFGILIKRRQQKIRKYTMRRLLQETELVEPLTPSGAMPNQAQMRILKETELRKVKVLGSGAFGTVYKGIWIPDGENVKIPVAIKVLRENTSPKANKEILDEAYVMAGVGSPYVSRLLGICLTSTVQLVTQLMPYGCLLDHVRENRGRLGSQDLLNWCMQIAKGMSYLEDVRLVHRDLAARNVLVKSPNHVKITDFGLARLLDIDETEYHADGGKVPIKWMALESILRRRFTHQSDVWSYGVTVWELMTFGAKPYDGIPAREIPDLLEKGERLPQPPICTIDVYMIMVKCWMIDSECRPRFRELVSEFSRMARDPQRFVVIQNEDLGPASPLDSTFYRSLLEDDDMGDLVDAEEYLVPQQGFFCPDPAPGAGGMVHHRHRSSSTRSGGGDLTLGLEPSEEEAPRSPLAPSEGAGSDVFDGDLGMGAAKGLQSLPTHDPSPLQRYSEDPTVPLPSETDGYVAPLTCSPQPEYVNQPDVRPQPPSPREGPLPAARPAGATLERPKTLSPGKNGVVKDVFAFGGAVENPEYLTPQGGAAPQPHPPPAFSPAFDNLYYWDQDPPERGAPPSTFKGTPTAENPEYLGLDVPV
EGFR, sequence (P00533 25-1210): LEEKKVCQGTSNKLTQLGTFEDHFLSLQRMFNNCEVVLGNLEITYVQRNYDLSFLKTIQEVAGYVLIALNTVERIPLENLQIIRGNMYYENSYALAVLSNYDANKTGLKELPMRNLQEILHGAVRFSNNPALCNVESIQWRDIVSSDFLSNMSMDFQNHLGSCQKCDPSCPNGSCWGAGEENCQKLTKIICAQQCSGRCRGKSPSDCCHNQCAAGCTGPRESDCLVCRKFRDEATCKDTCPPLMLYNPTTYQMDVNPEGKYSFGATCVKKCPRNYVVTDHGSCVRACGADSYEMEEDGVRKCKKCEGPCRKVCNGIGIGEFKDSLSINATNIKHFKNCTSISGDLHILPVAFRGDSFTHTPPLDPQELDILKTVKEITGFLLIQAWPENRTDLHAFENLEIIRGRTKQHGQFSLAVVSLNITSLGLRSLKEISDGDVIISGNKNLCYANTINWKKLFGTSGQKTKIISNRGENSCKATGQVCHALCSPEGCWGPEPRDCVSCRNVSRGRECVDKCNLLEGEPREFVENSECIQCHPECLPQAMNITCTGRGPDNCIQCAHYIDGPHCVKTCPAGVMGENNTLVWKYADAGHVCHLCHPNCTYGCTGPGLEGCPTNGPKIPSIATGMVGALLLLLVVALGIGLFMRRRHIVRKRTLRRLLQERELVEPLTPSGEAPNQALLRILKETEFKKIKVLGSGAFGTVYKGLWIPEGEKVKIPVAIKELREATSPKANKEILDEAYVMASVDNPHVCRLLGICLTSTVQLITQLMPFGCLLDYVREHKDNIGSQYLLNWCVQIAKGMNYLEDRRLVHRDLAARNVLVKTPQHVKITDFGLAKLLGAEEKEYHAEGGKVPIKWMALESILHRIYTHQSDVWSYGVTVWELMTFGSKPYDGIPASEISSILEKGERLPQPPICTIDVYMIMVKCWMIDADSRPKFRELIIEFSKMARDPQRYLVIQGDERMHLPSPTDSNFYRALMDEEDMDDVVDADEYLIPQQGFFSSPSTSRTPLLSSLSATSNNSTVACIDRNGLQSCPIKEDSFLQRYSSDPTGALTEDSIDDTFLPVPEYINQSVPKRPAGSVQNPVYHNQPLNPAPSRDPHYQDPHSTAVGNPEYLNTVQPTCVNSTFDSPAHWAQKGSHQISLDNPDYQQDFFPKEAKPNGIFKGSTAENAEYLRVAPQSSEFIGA

Row | Compound | pIC50 [1] | pIC50 [2] | pIC50 [3] | pIC50 [4] | pIC50 [5] | efflux ratio at 2 h, 1 μM [6] | IC50 [1] [nM]
1 | Cc1cc(Nc2ncnc3cnc(N[C@@H]4CNCC4(F)F)nc23)ccc1Oc1ccc2c(c1)ncn2C [Example 297] | 7.75 | 7.40 | 5.48 | 7.53 | ≤ 5.30 | 3.2 | 
2 | Cn1cnc2cc(Oc3ccc(Nc4ncnc5cnc(N6CCN(C7COC7)CC6)nc45)cc3Cl)ccc21 [Example 485] | 7.66 | 7.11 | ≤ 5.00 | 7.95 | ≤ 5.30 | 1.3 | 
3 | Cn1cnc2cc(Oc3ccc(Nc4ncnc5cnc(N6CCC6)nc45)cc3Cl)ccc21.O=C(O)C(F)(F)F [Example 148, 6-(azetidin-1-yl)-N-(3-chloro-4-((1-methyl-1H-benzo[d]imidazol-5-yl)oxy)phenyl)pyrimido[5,4-d]pyrimidin-4-amine 2,2,2-trifluoroacetate] |  | 7.47 | ≤ 5.00 | 7.89 | ≤ 5.30 | 1.3 | 24.3
4 | Cn1cnc2cc(Oc3ccc(Nc4ncnc5cnc(N6CCN7CCOC[C@@H]7C6)nc45)cc3Cl)ccc21.O=C(O)C(F)(F)F.O=C(O)C(F)(F)F [Example 151, (S)—N-(3-chloro-4-((1-methyl-1H-benzo[d]imidazol-5-yl)oxy)phenyl)-6-(hexahydropyrazino[2,1-c][1,4]oxazin-8(1H)-yl)pyrimido[5,4-d]pyrimidin-4-amine bis(2,2,2-trifluoroacetate)] |  | 7.21 | ≤ 5.00 | 7.73 | ≤ 5.30 | 1.2 | 24.6
5 | Cc1cc(Nc2ncnc3cnc(N4CCC(CC#N)C4)nc23)ccc1Oc1ccc2c(c1)ncn2C (stereo not drawn) [Example 192, 2-(1-(8-((3-methyl-4-((1-methyl-1H-benzo[d]imidazol-5-yl)oxy)phenyl)amino)pyrimido[5,4-d]pyrimidin-2-yl)pyrrolidin-3-yl)acetonitrile] | 7.72 | 7.35 | ≤ 5.00 | 7.88 | ≤ 5.30 | 1.6 | 
6 | Cc1cc(Nc2ncnc3cnc(N(C)[C@@H]4CNC[C@@H]4F)nc23)ccc1Oc1ccc2c(c1)ncn2C [Example 94, N2-((3R,4S)-4-fluoropyrrolidin-3-yl)-N2-methyl-N8-(3-methyl-4-((1-methyl-1H-benzo[d]imidazol-5-yl)oxy)phenyl)pyrimido[5,4-d]pyrimidine-2,8-diamine] | 7.67 | 7.50 | 5.36 | 7.69 | ≤ 5.30 | 12 | 
7 | Cc1c(Oc2ccc3c(c2)ncn3C)ccc(Nc2ncnc3cnc(N4CC[C@](C)(O)C4)nc23)c1F [Example 97, (S)-1-(8-((2-fluoro-3-methyl-4-((1-methyl-1H-benzo[d]imidazol-5-yl)oxy)phenyl)amino)pyrimido[5,4-d]pyrimidin-2-yl)-3-methylpyrrolidin-3-ol] | 7.85 | 7.51 | ≤ 5.00 | 7.32 | ≤ 5.30 | 2 | 
8 | Cc1cc(Nc2ncnc3cnc(N4CC[C@H](O)C4)nc23)ccc1Oc1ccc2c(c1)ncn2C [Example 174, (S)-1-(8-((3-methyl-4-((1-methyl-1H-benzo[d]imidazol-5-yl)oxy)phenyl)amino)pyrimido[5,4-d]pyrimidin-2-yl)pyrrolidin-3-ol] | 7.94 | 7.50 | 5.56 | 8.10 | ≤ 5.30 | 3.1 | 
9 | Cc1cc(Nc2ncnc3cnc(N4CC[C@H](CC#N)C4)nc23)ccc1Oc1ccc2c(c1)ncn2C [Example 469] | 7.72 | 7.35 | ≤ 5.00 | 7.88 | ≤ 5.30 | 1.6 | 
10 | Cc1cc(Nc2ncnc3cnc(NCC4(O)COC4)nc23)ccc1Oc1ccc2c(c1)ncn2C [Example 319] | 7.78 | 8.35 | 6.06 | 7.58 | ≤ 5.30 | 10.6 | 
11 | Cc1cc(Nc2ncnc3cnc(N4CC5(CC(O)C5)C4)nc23)ccc1Oc1ccc2c(c1)ncn2C [Example 213, 2-(8-((3-methyl-4-((1-methyl-1H-benzo[d]imidazol-5-yl)oxy)phenyl)amino)pyrimido[5,4-d]pyrimidin-2-yl)-2-azaspiro[3.3]heptan-6-ol] | 7.71 | 7.47 | ≤ 5.00 | 7.47 | ≤ 5.30 | 2.4 | 
12 | Cc1cc(Nc2ncnc3cnc(N4C[C@@H]5C[C@H]4C[C@@H]5O)nc23)ccc1Oc1ccc2c(c1)ncn2C [Example 470] | 7.42 | 7.28 | 5.16 | 7.61 | ≤ 5.30 | 2.5 | 
13 | CO[C@@H]1CN(c2ncc3ncnc(Nc4ccc(Oc5ccc6c(c5)ncn6C)c(C)c4)c3n2)C[C@H]1O (racemic) [Example 107, ±(3R,4R)-4-methoxy-1-(8-((3-methyl-4-((1-methyl-1H-benzo[d]imidazol-5-yl)oxy)phenyl)amino)pyrimido[5,4-d]pyrimidin-2-yl)pyrrolidin-3-ol] | 7.51 | 7.81 | ≤ 5.00 | 7.50 | ≤ 5.30 | 3.2 | 
14 | Cc1cc(Nc2ncnc3cnc(N4CC[C@H](F)[C@@H](O)C4)nc23)ccc1Oc1ccc2c(c1)ncn2C [Example 162, (3S,4S)-4-fluoro-1-(8-((3-methyl-4-((1-methyl-1H-benzo[d]imidazol-5-yl)oxy)phenyl)amino)pyrimido[5,4-d]pyrimidin-2-yl)piperidin-3-ol] | 7.71 | 7.50 | 5.13 | 7.44 | ≤ 5.30 | 2.8 | 
15 | Cn1cnc2cc(Oc3ccc(Nc4ncnc5cnc(N6CC7C8CCC(O8)C7C6)nc45)cc3Cl)ccc21.O=C(O)C(F)(F)F (stereo not drawn) [Example 149, N-(3-chloro-4-((1-methyl-1H-benzo[d]imidazol-5-yl)oxy)phenyl)-6-(octahydro-2H-4,7-epoxyisoindol-2-yl)pyrimido[5,4-d]pyrimidin-4-amine] |  | 6.99 | ≤ 5.00 | 7.58 | ≤ 5.30 | 1 | 99
16 | Cc1cc(Nc2ncnc3cnc(N4CCNC(=O)C4)nc23)ccc1Oc1ccc2c(c1)ncn2C [Example 198, 4-(8-((3-methyl-4-((1-methyl-1H-benzo[d]imidazol-5-yl)oxy)phenyl)amino)pyrimido[5,4-d]pyrimidin-2-yl)piperazin-2-one] | 7.70 | 7.66 | 5.48 | 7.42 | ≤ 5.30 | 10.7 | 
17 | Cc1cc(Nc2ncnc3cnc(N(C)[C@H]4C[C@@](C)(O)C4)nc23)ccc1Oc1ccc2c(c1)ncn2C [Example 165, (1s, 3s)-1-methyl-3-(methyl(8-((3-methyl-4-((1-methyl-1H-benzo[d]imidazol-5-yl)oxy)phenyl)amino)pyrimido[5,4-d]pyrimidin-2-yl)amino)cyclobutan-1-ol] | 8.12 | 8.25 | 6.67 | 7.94 | ≤ 5.30 | 2.1 | 
